What was measured:
[1] = molecular target: T1, ATP-dependent translocase ABCB1 (Mus musculus, UniProt P06795); assay: Inhibition of P-glycoprotein in MDR mouse T lymphoma cells using rhodamine 123 assessed as ratio of fluorescent uptake relative to untreated control at 10 uM in MDR reversal assay by flow cytometry; assay type: cell-based
[2] = molecular target: T1, ATP-dependent translocase ABCB1; assay: Inhibition of P-glycoprotein in MDR mouse T lymphoma cells using rhodamine 123 assessed as ratio of fluorescent uptake relative to untreated control at 1 uM in MDR reversal assay by flow cytometry; assay type: cell-based

T1 sequence (P06795 whole entry): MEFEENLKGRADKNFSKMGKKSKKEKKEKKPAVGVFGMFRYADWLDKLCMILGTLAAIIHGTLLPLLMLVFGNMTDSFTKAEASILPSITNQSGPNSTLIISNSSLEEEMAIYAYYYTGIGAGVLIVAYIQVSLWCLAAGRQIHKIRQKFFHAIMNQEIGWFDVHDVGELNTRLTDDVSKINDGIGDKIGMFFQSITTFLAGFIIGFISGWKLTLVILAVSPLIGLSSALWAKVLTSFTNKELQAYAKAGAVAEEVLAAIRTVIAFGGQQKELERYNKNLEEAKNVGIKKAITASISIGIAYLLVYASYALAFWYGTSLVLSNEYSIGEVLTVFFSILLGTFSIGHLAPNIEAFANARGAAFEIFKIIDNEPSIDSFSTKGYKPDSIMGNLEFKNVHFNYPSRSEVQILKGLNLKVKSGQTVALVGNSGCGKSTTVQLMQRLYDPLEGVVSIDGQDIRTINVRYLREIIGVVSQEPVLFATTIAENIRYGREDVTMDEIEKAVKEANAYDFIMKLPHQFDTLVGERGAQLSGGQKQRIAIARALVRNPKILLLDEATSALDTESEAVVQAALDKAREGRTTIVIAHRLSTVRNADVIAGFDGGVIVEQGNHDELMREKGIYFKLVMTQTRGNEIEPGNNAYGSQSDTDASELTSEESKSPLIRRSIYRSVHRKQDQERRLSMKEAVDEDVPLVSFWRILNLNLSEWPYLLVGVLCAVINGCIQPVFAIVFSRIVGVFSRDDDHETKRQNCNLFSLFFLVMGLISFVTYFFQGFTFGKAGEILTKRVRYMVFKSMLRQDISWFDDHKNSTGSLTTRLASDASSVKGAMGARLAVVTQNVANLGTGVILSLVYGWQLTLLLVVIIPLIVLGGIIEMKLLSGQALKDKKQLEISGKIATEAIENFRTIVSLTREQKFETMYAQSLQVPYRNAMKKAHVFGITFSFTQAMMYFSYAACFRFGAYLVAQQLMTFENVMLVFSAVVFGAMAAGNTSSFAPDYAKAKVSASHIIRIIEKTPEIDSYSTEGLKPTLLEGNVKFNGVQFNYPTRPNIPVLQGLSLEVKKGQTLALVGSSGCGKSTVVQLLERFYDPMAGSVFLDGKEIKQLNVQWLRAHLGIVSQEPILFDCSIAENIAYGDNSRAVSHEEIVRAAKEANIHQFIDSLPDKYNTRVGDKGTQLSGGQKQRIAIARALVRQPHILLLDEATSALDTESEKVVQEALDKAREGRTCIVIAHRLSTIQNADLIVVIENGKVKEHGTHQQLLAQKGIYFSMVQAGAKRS

Row | Activity [1] | Activity [2] | Structure (SMILES)
1 | 3.58 | 1.41 | CC(=O)C1=CN(C(=O)Oc2ccccc2)C=CC1c1ccc(C)cc1 (configuration not stated)
2 | 7.1 | 1.81 | COc1ccc(C2C=CN(C(=O)Oc3ccccc3)C=C2C(C)=O)cc1 (configuration not stated)
3 | 19.87 | 1.3 | CCOC(=O)C1=CN(C(=O)Oc2ccccc2)C=CC1c1ccc(OC)cc1 (configuration not stated)
4 | 3.09 | 1.04 | CCOC(=O)C1=CN(C(=O)Oc2ccccc2)C=CC1c1ccc(C)cc1 (configuration not stated)

Further lines, the compound ahead of its results:

Row | Structure (SMILES) | Activity [1] | Activity [2]
5 | CCOC(=O)C1=CN(C(=O)Oc2ccccc2)C=CC1c1ccccc1OC (configuration not stated) | 39.98 | 1.6
6 | COc1ccccc1C1C=CN(C(=O)Oc2ccccc2)C=C1C(C)=O (configuration not stated) | 5.15 | 1.01

Reference: ChEMBL document CHEMBL1143712, “Structure-activity relationships of novel N-acyloxy-1,4-dihydropyridines as P-glycoprotein inhibitors” (Bioorg Med Chem, 2007)
